Converted amounts (≈) assume the structure as drawn.
Tests used:
[1] = Aqueous solubility of the compound by turbidity-based assay; format: physicochemical; settings: buffer
[2] = system: Mus musculus; assay: Anti-inflammatory activity in unilateral ureter obstruction-induced C57BL/6 mouse renal inflammation model assessed as reduction in F4/80+ macrophage accumulation in kidney at 40 mg/kg, po via gavage administered at 12 hrs time interval for 7 days starting from end of UUO surgery by […] staining based immunohistochemical analysis relative to control; format: functional; settings: C57BL/6, po
[3] = biological target: Macrophage colony-stimulating factor 1 receptor (Homo sapiens, UniProt P07333); assay: Inhibition of CSF1R (unknown origin) using biotinylated peptide substrate
Chain of Macrophage colony-stimulating factor 1 receptor (P07333 whole entry): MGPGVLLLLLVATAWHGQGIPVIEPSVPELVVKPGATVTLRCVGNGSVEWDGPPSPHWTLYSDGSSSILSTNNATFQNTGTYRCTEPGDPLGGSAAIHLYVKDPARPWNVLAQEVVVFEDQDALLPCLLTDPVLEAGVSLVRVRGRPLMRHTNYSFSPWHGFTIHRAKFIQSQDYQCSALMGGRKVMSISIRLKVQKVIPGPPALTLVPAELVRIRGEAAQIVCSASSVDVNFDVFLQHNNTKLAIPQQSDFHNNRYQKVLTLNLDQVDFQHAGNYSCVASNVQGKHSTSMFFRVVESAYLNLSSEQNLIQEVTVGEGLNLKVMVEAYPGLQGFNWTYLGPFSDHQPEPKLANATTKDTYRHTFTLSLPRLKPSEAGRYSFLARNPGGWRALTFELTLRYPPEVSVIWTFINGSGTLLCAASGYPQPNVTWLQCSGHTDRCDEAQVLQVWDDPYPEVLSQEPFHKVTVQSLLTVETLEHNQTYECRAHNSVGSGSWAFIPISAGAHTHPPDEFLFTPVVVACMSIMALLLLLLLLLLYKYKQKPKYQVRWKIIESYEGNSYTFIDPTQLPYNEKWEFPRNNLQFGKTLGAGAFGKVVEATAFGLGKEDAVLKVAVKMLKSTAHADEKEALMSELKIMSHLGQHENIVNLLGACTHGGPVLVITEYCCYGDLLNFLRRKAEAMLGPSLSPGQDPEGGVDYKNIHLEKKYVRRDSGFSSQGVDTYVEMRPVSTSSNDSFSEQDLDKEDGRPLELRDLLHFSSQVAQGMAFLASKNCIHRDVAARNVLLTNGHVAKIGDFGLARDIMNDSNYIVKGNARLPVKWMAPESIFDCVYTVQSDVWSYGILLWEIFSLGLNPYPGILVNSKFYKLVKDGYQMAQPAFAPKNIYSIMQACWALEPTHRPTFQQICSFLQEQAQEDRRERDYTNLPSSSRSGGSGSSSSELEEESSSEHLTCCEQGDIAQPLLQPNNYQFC

[4] = biological target: Mast/stem cell growth factor receptor Kit (Homo sapiens, UniProt P10721); assay: Inhibition of KIT (unknown origin) using biotinylated peptide substrate
Chain of Mast/stem cell growth factor receptor Kit (P10721 whole entry): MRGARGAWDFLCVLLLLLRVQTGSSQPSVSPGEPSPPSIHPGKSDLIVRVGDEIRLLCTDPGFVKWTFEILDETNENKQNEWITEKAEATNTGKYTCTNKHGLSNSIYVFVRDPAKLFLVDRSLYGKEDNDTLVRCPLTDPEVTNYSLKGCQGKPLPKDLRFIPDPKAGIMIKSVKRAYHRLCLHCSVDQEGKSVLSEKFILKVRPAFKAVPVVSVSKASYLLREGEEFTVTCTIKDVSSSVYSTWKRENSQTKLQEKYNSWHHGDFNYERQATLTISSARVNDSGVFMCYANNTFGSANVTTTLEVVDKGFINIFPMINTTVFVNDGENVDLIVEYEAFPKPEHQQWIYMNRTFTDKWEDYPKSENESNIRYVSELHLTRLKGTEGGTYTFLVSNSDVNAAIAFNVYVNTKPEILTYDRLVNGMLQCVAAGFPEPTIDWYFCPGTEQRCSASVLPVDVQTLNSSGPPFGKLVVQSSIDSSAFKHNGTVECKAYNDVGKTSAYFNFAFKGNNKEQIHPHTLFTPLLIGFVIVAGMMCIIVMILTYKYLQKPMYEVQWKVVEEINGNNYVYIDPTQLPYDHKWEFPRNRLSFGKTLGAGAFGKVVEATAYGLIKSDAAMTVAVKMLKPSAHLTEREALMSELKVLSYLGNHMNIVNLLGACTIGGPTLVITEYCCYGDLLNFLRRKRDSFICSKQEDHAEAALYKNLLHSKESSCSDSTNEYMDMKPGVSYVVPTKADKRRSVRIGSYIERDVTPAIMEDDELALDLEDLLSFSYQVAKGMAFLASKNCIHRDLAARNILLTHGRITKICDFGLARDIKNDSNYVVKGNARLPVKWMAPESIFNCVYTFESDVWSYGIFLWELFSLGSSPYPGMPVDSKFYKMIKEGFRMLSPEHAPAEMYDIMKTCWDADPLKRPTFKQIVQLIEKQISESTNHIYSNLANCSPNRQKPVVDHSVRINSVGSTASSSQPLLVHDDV

[5] = system: Mus musculus; assay: Inhibition of LPS-induced IL-6 level in serum of Swiss Webster mouse at 40 mg/kg, po via gavage pretreated for 4.15 hrs followed by LPS stimulation measured after 1.5 hrs by ELISA relative to control; format: functional
[6] = system: Mus musculus; assay: Inhibition of LPS-induced TNFalpha level in serum of Swiss Webster mouse at 40 mg/kg, po via gavage pretreated for 4.15 hrs followed by LPS stimulation measured after 1.5 hrs by ELISA relative to control; format: functional
[7] = Protein binding in human plasma at 10 uM after 4 hrs by equilibrium dialysis method; format: ADME, cell-free; settings: read-out: PPB (converted)
[8] = system: NFS-60; assay: Antiproliferative activity against mouse M-NFS-60 cells harboring CSF1; format: functional, cell-based
[9] = Tmax in cHL patient at 10 mg administered as single dose; format: ADME, organism-based; settings: human, in vivo
[10] = Drug uptake in tumor of recurrent GB patient at 1000 mg, po daily after 7 days; format: ADME, organism-based, Neoplasm; settings: human, read-out: Drug uptake

| Structure (SMILES) | solubility kinetic [1] [µM] | IC50 [3] [nM] | fraction unbound at 4 h, 10 µM [7] | EC50 [8] [nM] | further results |
| --- | --- | --- | --- | --- | --- |
| FC(F)(F)c1ccc(CNc2ccc(Cc3c[nH]c4ncccc34)cn2)cc1 | 14 (≈ 5.35 µg/mL) | 28 | – | – | inhibition in vivo at 40 mg/kg [2]: 77%; IC50 [4]: 16 nM; inhibition in vivo at 40 mg/kg [5]: 75%; inhibition in vivo at 40 mg/kg [6]: 85% |
| CC1(C)CC=C(c2nc(C3CC(C)(C)OC(C)(C)C3)ccc2NC(=O)c2nc(C#N)c[nH]2)CC1 [EDICOTINIB] | – | – | – | – | Tmax [9]: 1 to 3.5 h |
| FC(F)(F)c1ccc(CNc2ccc(Cc3c[nH]c4ncc(Cl)cc34)cn2)cn1 [PEXIDARTINIB] | – | – | – | – | concentration at 168 h [10]: 5500 ng/g |

Now from value to compound, other results behind:

| solubility kinetic [1] [µM] | IC50 [3] [nM] | fraction unbound at 4 h, 10 µM [7] | Structure (SMILES) | EC50 [8] [nM] | further results |
| --- | --- | --- | --- | --- | --- |
| – | – | 0.031 | CNC(=O)c1cc(Oc2ccc3nc(N[C@@H]4CCCC[C@@H]4O)sc3c2)ccn1 | 140 | – |
| 77 (≈ 31.8 µg/mL) | 62 | – | COc1cnc2[nH]cc(Cc3ccc(NCc4ccc(C(F)(F)F)cc4)nc3)c2c1 | – | – |
| – | – | 0.037 | CNC(=O)c1cc(Oc2ccc3nc(N[C@@H]4CCCC[C@H]4O)sc3c2)ccn1 [SOTULETINIB] | 71 | – |

Source: ChEMBL document CHEMBL4219057, “Recent Advances of Colony-Stimulating Factor-1 Receptor (CSF-1R) Kinase and Its Inhibitors” (J Med Chem, 2018)
